In general, mortality refers to the share of the test organisms that died.

Consider 44 compounds from patent US7655665B2, “Nitromethylene derivatives and their use” (East China University of Science and Technology, priority 2004, dated 2010).

In one data set the test system is Aphis craccivoral. Put plainly: Insecticidal activity against Aphis craccivoral by immersing (dipping aphids on bean sprout). The data set is classed as in vivo. The conditions noted are these: for mortality (%) (500 ppm) Aphis: 23° C. The method, then:
(§1) Test on the insecticidal activity of Compound Nos. 1-227
Aphis, which belongs to Homoptera and has a piercing-sucking mouthpart, is a common insect for agricultural plant. Aphis craccivoral was tested by the way of immersing.
Test method: exactly weighed various samples were independently added to N,N-dimethylformamide to form a 10 g/L stock solution. The mixture was diluted with 0.2 mL/L aqueous Triton X-100 solution to a concentration of 500 ug/mL. After stably sucking on bean sprout, the adult aphis without wings together with bean sprout was dipped into 500 ug/mL dilution, taken out after 5 seconds, and the excess dilution was sucked out with bibulous paper and the adult aphis without wings was incubated in clean vessel at a constant temperature of 23° C. Each concentration was repeated for 3 times and the control group contained 0.2 mL/L aqueous Triton X-100 solution. The number of killed aphis was counted after 24 hours to calculate the mortality.

The next data set deals with Nilaparvata lugens. The data set can be described thus: Insecticidal activity against Nilaparvata lugens (planthopper) by spraying. The data set is classed as in vivo. Conditions: for mortality (%) (500 ppm) Nilaparvata lugens: spraying 2 ml, counted after 24 hours; for mortality (%) (500 ppm) Nilaparvata-lugens: spraying 2 ml per tumbler, killed counted after 24 hours. The method, then: as §1
Planthopper, which belongs to Homoptera and has a piercing-sucking mouthpart, is a common insect for agricultural plant. Nilaparvata lugens was tested by the way of spraying.
Test method: the test compound was exactly formulated into a solution having a certain concentration and clean water was used as a blank control. Each process was repeated for 3 tumblers (3 times). 2 ml of solution was sprayed uniformly to each tumbler by a mini manual sprayer. 10 Nilaparvata lugens were introduced to every sink 6 hours before spraying. Three series of experiments were conducted. The number of killed Nilaparvata lugens was counted after 24 hours to calculate the mortality.

Setting [1] is: 500 ppm, immersing (dipped 5 seconds), counted after 24 hours.
Setting [2] is: 500 ppm (500 ug/mL dilution), dipped 5 seconds, killed aphis counted after 24 hours.

For `O=[N+]([O-])C1=C2N(Cc3cnc(Cl)s3)CCN2C(O)CC1` (racemic) [Compound 23], the “mortality (%) (500 ppm) Aphis” value in the data set with Aphis craccivoral (setting [1]) was determined as 87%. Also, the “mortality (%) (500 ppm) Nilaparvata lugens” value with Nilaparvata lugens was 100%.
Take `CCCCN=C1CCC([N+](=O)[O-])=C2N(Cc3ccc(Cl)nc3)CCCN12` [Compound 207]: the “mortality (%) (500 ppm) Aphis” value with Aphis craccivoral (setting [2]) stood at 14%. Further, the “mortality (%) (500 ppm) Nilaparvata-lugens” value in the data set on Nilaparvata lugens was 45%.
On the same counts, the results for `CCCCN=C1CCC([N+](=O)[O-])=C2N(Cc3cnc(Cl)s3)CCCN12` [Compound 224] are 45% and 66%.
As for `COC1CCC([N+](=O)[O-])=C2N(Cc3ccc(Cl)nc3)CCCN21` (stereo not shown) [Compound 72], the “mortality (%) (500 ppm) Aphis” value in the data set with Aphis craccivoral (setting [1]) is 35%. In the data set with Nilaparvata lugens, the “mortality (%) (500 ppm) Nilaparvata lugens” value is recorded as 100%.
On the same counts, the results for `C=CCOC1CCC([N+](=O)[O-])=C2N(Cc3ccc(Cl)nc3)CCN21` (racemic) [Compound 19] are 35% and 78%.
On the same counts, the results for `CC1CC(O)N2CCN(CC3CCOC3)C2=C1[N+](=O)[O-]` (stereo not shown) [Compound 68] are 2% and 7%.
With `CS(=O)(=O)OC1CCC([N+](=O)[O-])=C2N(Cc3ccc(Cl)nc3)CCN21` (stereo not shown) [Compound 117], the “mortality (%) (500 ppm) Aphis” value with Aphis craccivoral (setting [1]) came out at 19%. The “mortality (%) (500 ppm) Nilaparvata lugens” value in the data set on Nilaparvata lugens was found to be 65%.
As for `CSC1CCC([N+](=O)[O-])=C2N(Cc3ccc(Cl)nc3)CCN21` (stereo not shown) [Compound 132], the “mortality (%) (500 ppm) Aphis” value with Aphis craccivoral (setting [1]) came to 100%. In the data set on Nilaparvata lugens, the “mortality (%) (500 ppm) Nilaparvata lugens” value came to 100%.
In the case of `O=[N+]([O-])C1=C2N(Cc3ccc(Cl)nc3)CCCN2C(OC(C(F)(F)F)C(F)(F)F)CC1` (stereo not shown) [Compound 78], in the data set with Aphis craccivoral (setting [1]), the “mortality (%) (500 ppm) Aphis” value is 68%. Further, in the data set with Nilaparvata lugens, the “mortality (%) (500 ppm) Nilaparvata lugens” value is 51%.
On the same counts, the results for `CC(C)COC1CCC([N+](=O)[O-])=C2N(CC3CCOC3)CCCN21` (stereo not shown) [Compound 108] are 1% and 9%.
In the case of `CCCOC1CCC([N+](=O)[O-])=C2N(CC3CCOC3)CCCN21` (stereo not shown) [Compound 104], in the data set with Aphis craccivoral (setting [1]), the “mortality (%) (500 ppm) Aphis” value is reported as 3%. In the data set on Nilaparvata lugens, the “mortality (%) (500 ppm) Nilaparvata lugens” value is 24%.
For the compound `CCOCCOC1CCC([N+](=O)[O-])=C2N(Cc3ccc(Cl)nc3)CCN21` (racemic) [Compound 22], in the data set with Aphis craccivoral (setting [1]), the “mortality (%) (500 ppm) Aphis” value came out at 100%. Moreover, the “mortality (%) (500 ppm) Nilaparvata lugens” value with Nilaparvata lugens was determined as 100%.
Consider `CC(C)CSC1CCC([N+](=O)[O-])=C2N(Cc3cnc(Cl)s3)CCN21` (stereo not shown) [Compound 179], for which the “mortality (%) (500 ppm) Aphis” value with Aphis craccivoral (setting [2]) is reported as 12%. Also, the “mortality (%) (500 ppm) Nilaparvata-lugens” value in the data set with Nilaparvata lugens is listed as 56%.
On the same counts, the results for `CC(C)(C)CN=C1CCC([N+](=O)[O-])=C2N(Cc3ccc(Cl)nc3)CCN12` [Compound 198] are 39% and 89%.
On the same counts, the results for `CCCN=C1CCC([N+](=O)[O-])=C2N(Cc3ccc(Cl)nc3)CCN12` [Compound 192] are 86% and 100%.
Consider `O=C(OC1CCC([N+](=O)[O-])=C2N(Cc3ccc(Cl)nc3)CCN21)c1ccccn1` (stereo not shown) [Compound 121], for which the “mortality (%) (500 ppm) Aphis” value in the data set on Aphis craccivoral (setting [1]) was found to be 0%. In addition, the “mortality (%) (500 ppm) Nilaparvata lugens” value in the data set with Nilaparvata lugens is reported as 8%.
For the compound `O=[N+]([O-])C1=C2N(Cc3ccc(Cl)nc3)CCCN2C(=NCCCl)CC1` [Compound 204], the “mortality (%) (500 ppm) Aphis” value with Aphis craccivoral (setting [2]) is on record as 46%. In addition, the “mortality (%) (500 ppm) Nilaparvata-lugens” value in the data set on Nilaparvata lugens was determined as 78%.
On the same counts, the results for `CC(C)(C)CN=C1CCC([N+](=O)[O-])=C2N(Cc3ccc(Cl)nc3)CCCN12` [Compound 211] are 34% and 56%.
Turning to `CCOCCOC1CCC([N+](=O)[O-])=C2N(Cc3cnc(Cl)s3)CCCN21` (stereo not shown) [Compound 98], in the data set with Aphis craccivoral (setting [1]), the “mortality (%) (500 ppm) Aphis” value is given as 4%. Further, the “mortality (%) (500 ppm) Nilaparvata lugens” value with Nilaparvata lugens is given as 7%.
On the same counts, the results for `CCOC1CCC([N+](=O)[O-])=C2N(CC3CCOC3)CCCN21` (stereo not shown) [Compound 101] are 76% and 90%.
On to `O=[N+]([O-])C1=C2N(Cc3cnc(Cl)s3)CCN2C(SCC(F)(F)F)CC1` (stereo not shown) [Compound 174], for which, in the data set on Aphis craccivoral (setting [2]), the “mortality (%) (500 ppm) Aphis” value was 67%. For the same compound, the “mortality (%) (500 ppm) Nilaparvata-lugens” value in the data set with Nilaparvata lugens turned out to be 100%.
On the same counts, the results for `CC(C)CCN=C1CCC([N+](=O)[O-])=C2N(Cc3ccc(Cl)nc3)CCN12` [Compound 196] are 12% and 25%.
Turning to `COCCOC1CCC([N+](=O)[O-])=C2N(Cc3ccc(Cl)nc3)CCN21` (racemic) [Compound 21], the “mortality (%) (500 ppm) Aphis” value with Aphis craccivoral (setting [1]) is 100%. Besides, the “mortality (%) (500 ppm) Nilaparvata lugens” value with Nilaparvata lugens is recorded as 100%.
Regarding `COCCOC1CCC([N+](=O)[O-])=C2N(Cc3cnc(Cl)s3)CCCN21` (stereo not shown) [Compound 97], the “mortality (%) (500 ppm) Aphis” value in the data set on Aphis craccivoral (setting [1]) stood at 78%. Besides, in the data set with Nilaparvata lugens, the “mortality (%) (500 ppm) Nilaparvata lugens” value stood at 100%.
On the same counts, the results for `O=[N+]([O-])C1=C2N(CC3CCOC3)CCCN2C(OCC(F)(F)F)CC1` (stereo not shown) [Compound 103] are 6% and 100%.
`COCCOC1CCC([N+](=O)[O-])=C2N(Cc3ccc(Cl)nc3)CCCN21` (stereo not shown) [Compound 83]: in the data set with Aphis craccivoral (setting [1]), the “mortality (%) (500 ppm) Aphis” value is reported as 38%. Moreover, the “mortality (%) (500 ppm) Nilaparvata lugens” value in the data set with Nilaparvata lugens amounted to 26%.
On the same counts, the results for `CC(C)(OC1CCC([N+](=O)[O-])=C2N(Cc3cnc(Cl)s3)CCN21)C(Cl)(Cl)Cl` (racemic) [Compound 35] are 98% and 100%.
For `CCOC1CCC([N+](=O)[O-])=C2N(Cc3cnc(Cl)s3)CCN21` (racemic) [Compound 25], in that order: 100% and 100%.
On to `CCCCCN=C1CCC([N+](=O)[O-])=C2N(Cc3ccc(Cl)nc3)CCCN12` [Compound 208], for which the “mortality (%) (500 ppm) Aphis” value with Aphis craccivoral (setting [2]) was 35%. Moreover, in the data set with Nilaparvata lugens, the “mortality (%) (500 ppm) Nilaparvata-lugens” value is on record as 67%.
As for `CCOC1CCC([N+](=O)[O-])=C2N(Cc3cnc(Cl)s3)CCCN21` (stereo not shown) [Compound 87], the “mortality (%) (500 ppm) Aphis” value in the data set on Aphis craccivoral (setting [1]) is given as 100%. For the same compound, in the data set on Nilaparvata lugens, the “mortality (%) (500 ppm) Nilaparvata lugens” value came to 100%.
Take `CCC(C)SC1CCC([N+](=O)[O-])=C2N(Cc3cnc(Cl)s3)CCN21` (stereo not shown) [Compound 180]: the “mortality (%) (500 ppm) Aphis” value in the data set with Aphis craccivoral (setting [2]) worked out at 34%. Moreover, the “mortality (%) (500 ppm) Nilaparvata-lugens” value with Nilaparvata lugens worked out at 78%.
Turning to `CCCCOC1CCC([N+](=O)[O-])=C2N(CC3CCOC3)CCN21` (stereo not shown) [Compound 53], in the data set on Aphis craccivoral (setting [1]), the “mortality (%) (500 ppm) Aphis” value came out at 9%. In the data set with Nilaparvata lugens, the “mortality (%) (500 ppm) Nilaparvata lugens” value amounted to 12%.
Take `C=CCOC1CCC([N+](=O)[O-])=C2N(CC3CCOC3)CCN21` (stereo not shown) [Compound 64]: the “mortality (%) (500 ppm) Aphis” value in the data set with Aphis craccivoral (setting [1]) is reported as 37%. The “mortality (%) (500 ppm) Nilaparvata lugens” value with Nilaparvata lugens is 46%.
For `CC(C)COC1CCC([N+](=O)[O-])=C2N(Cc3ccc(Cl)nc3)CCCN21` (stereo not shown) [Compound 80], in that order: 23% and 34%.
In the case of `COCCSC1CCC([N+](=O)[O-])=C2N(Cc3cnc(Cl)s3)CCN21` (stereo not shown) [Compound 186], the “mortality (%) (500 ppm) Aphis” value with Aphis craccivoral (setting [2]) is reported as 97%. In addition, the “mortality (%) (500 ppm) Nilaparvata-lugens” value in the data set on Nilaparvata lugens is 100%.
Regarding `O=[N+]([O-])C1=C2N(Cc3ccc(Cl)nc3)CCCN2C(OCC(F)(F)F)CC1` (stereo not shown) [Compound 75], the “mortality (%) (500 ppm) Aphis” value in the data set on Aphis craccivoral (setting [1]) turned out to be 88%. In the data set with Nilaparvata lugens, the “mortality (%) (500 ppm) Nilaparvata lugens” value is given as 100%.
On the same counts, the results for `O=[N+]([O-])C1=C2N(Cc3cnc(Cl)s3)CCCN2C(OCCCl)CC1` (stereo not shown) [Compound 88] are 23% and 34%.
On the same counts, the results for `O=C(OC1CCC([N+](=O)[O-])=C2N(Cc3cnc(Cl)s3)CCN21)C(Cl)(Cl)Cl` (stereo not shown) [Compound 154] are 93% and 100%.
In the case of `C#CCOC1CCC([N+](=O)[O-])=C2N(Cc3cnc(Cl)s3)CCN21` (stereo not shown) [Compound 42], in the data set on Aphis craccivoral (setting [1]), the “mortality (%) (500 ppm) Aphis” value came to 45%. Moreover, the “mortality (%) (500 ppm) Nilaparvata lugens” value in the data set with Nilaparvata lugens is 100%.
On the same counts, the results for `CCOCCOC1CCC([N+](=O)[O-])=C2N(CC3CCOC3)CCN21` (stereo not shown) [Compound 67] are 100% and 100%.
With `CCOC1CCC([N+](=O)[O-])=C2N(Cc3ccc(Cl)nc3)CCN21` (stereo not shown) [Compound 3], the mortality at 500 ppm in the data set on Aphis craccivoral (Aphis, 24 h, read-out: mortality (%) (500 ppm) Aphis) was 100%; in the data set on Nilaparvata lugens (Nilaparvata lugens, 24 h, read-out: mortality (%) (500 ppm) Nilaparvata lugens) it was 100%.
Consider `CC(C)(C)COC1CCC([N+](=O)[O-])=C2N(CC3CCOC3)CCN21` (stereo not shown) [Compound 62], for which the “mortality (%) (500 ppm) Aphis” value in the data set on Aphis craccivoral (setting [1]) came to 12%. Besides, in the data set on Nilaparvata lugens, the “mortality (%) (500 ppm) Nilaparvata lugens” value is given as 23%.
With `CSC1CCC([N+](=O)[O-])=C2N(Cc3cnc(Cl)s3)CCN21` (stereo not shown) [Compound 171], in the data set on Aphis craccivoral (setting [2]), the “mortality (%) (500 ppm) Aphis” value turned out to be 97%. In addition, the “mortality (%) (500 ppm) Nilaparvata-lugens” value in the data set on Nilaparvata lugens was found to be 100%.
In the case of `CCN=C1CCC([N+](=O)[O-])=C2N(Cc3cnc(Cl)s3)CCN12` [Compound 214], the “mortality (%) (500 ppm) Aphis” value in the data set with Aphis craccivoral (setting [2]) is 55%. Moreover, the “mortality (%) (500 ppm) Nilaparvata-lugens” value with Nilaparvata lugens is listed as 90%.
